In patent US11583517B2, “Dual antagonist of PGD2/DPr2 and Thromboxane A2/TPr receptors and use for treatment of maladaptive immune response or thrombotic diathesis” (priority 2020, dated 2023):
Entries after “also recorded” stand apart in the source; their conditions may differ.

Experiments:
Alzheimer's disease [1] = experiment: AD patients randomized to four treatment groups; format: in vivo, human; conditions: long-term follow-up, compared with placebo
Alzheimer's disease [2] = conditions: in vivo; cited from earlier work
viral infection = experiment: outbreak of viral infection in animal shelter facility; format: in vivo, dogs and cats; conditions: older animals
Source text: In a large animal shelter facility, there was an outbreak of viral infection largely affecting dogs and cats leading to deaths of many older animals, while the young animals survived.

Parkinson's disease = experiment: patients with Parkinson's disease; format: in vivo, human
TAO [3] = experiment: TAO patient and randomized control trial versus standard of care; format: in vivo, human
[4] = system: dye nephrotoxicity and acute kidney injury; experiment: ramatroban versus placebo prior to cardiac catheterization; format: in vivo, human; conditions: chronic kidney disease or heart failure, compared to placebo
Source text: Patients with chronic kidney disease or heart failure are randomized to receive ramatroban versus placebo prior to cardiac catheterization.

acute viral pneumonia = format: in vivo, human
sickle cell disease = experiment: SCD patient given COVID-19 vaccine with ramatroban; format: in vivo, human
Procedure: A patient with sickle cell disease (SCD) has a past history of multiple vaso-occlusive crisis (VOC), acute chest syndrome (ACS) and ischemic cerebrovascular accidents. Patient is administered the AstraZeneca vaccine as prophylaxis against COVID-19. […] The same regimen is repeated at the time of the second dose of the vaccine. […] Other similar patients with SCD are found to experience high incidence of thrombotic events after COVID-19 vaccines.

TAO [5] = experiment: male smokers with TAO, ramatroban versus aspirin; format: in vivo, human; conditions: 12 months
Source text: All patients can be prescribed standard therapies including pentoxifylline, iloprost, calcium antagonists, statins and low molecular weight heparin or oral anticoagulants. […] There is increase in blood flow in the dorsalis pedis and posterior tibial pulses arteries by doppler examination with a decrease in need for surgical procedures and amputations. Improvement was seen of active vascular lesions and pain symptoms.

Kawasaki like disease = conditions: in vivo
[6] = system: asthma and allergic rhinitis; conditions: added to conventional therapeutic regimen
silicosis mice = conditions: silica-induced mouse model; cited from earlier work
pneumoconiosis = experiment: non-smoking stone crushers, chemoprophylaxis versus placebo; conditions: 5 years
[7] = system: primary pulmonary hypertension; experiment: patient with primary pulmonary hypertension; format: in vivo, human; conditions: person
Source text: Patient is diagnosed to have primary pulmonary hypertension.

[8] = Patient 6b, two months after start
[9] = retrospective analysis of COVID-19 patients
[10] = retrospective analysis, ramatroban continued after discharge

Q: Which cognition and memory (Alzheimer's disease [1]) does the source give for “sodium oligomannate [sodium oligomannate (GV-971)]” here?
A: The cognition and memory was “improvement”.

Q: What about the “cognitive impairment in Alzheimer's disease” value (Alzheimer's disease [2]) of the same compound?
A: The value was “improves”.

Q: With O=C(O)CCn1c2c(c3ccccc31)C[C@H](NS(=O)(=O)c1ccc(F)cc1)CC2 [Ramatroban, 3-[(3R)-3-[(4-fluorophenyl)sulfonylamino]-1,2,3,4-tetrahydrocarbazol-9-yl]propanoic acid] as the compound, how does the infection severity (viral infection) read?
A: The infection severity was “marked decline”.

Q: And the mortality (viral infection)?
A: Its mortality is “marked decrease”.

Q: What about the falls (Parkinson's disease; Patient 6a) of the same compound?
A: The falls was “stops falling”.

Q: What about the hallucinations (Parkinson's disease; Patient 6a) of the same compound?
A: The hallucinations was “no longer experiences hallucinations”.

Q: And the cognitive function (Parkinson's disease; Patient 6a, at 4 months)?
A: The cognitive function was “significant improvement”.

Q: And the sense of balance (Parkinson's disease; Patient 6a, first week of treatment)?
A: The sense of balance was “subjective improvement”.

Q: What about the “cognitive ability and sociability” value (Parkinson's disease; [8]) of the same compound?
A: The value was “marked improvements”.

Q: What about the hallucinations (Parkinson's disease; [8]) of the same compound?
A: Its hallucinations is “reduction”.

Q: What about the physical functioning (Parkinson's disease; [8]) of the same compound?
A: Its physical functioning is “significant improvement”.

Q: What about the “blood flow to the lower extremities” value (TAO [3]; a) person) of the same compound?
A: Its value is “improvement”.

Q: And the gangrenous toes (TAO [3]; a), chronic smoker)?
A: The gangrenous toes was “partial resolution and healing”.

Q: And the ischemic lesions (TAO [3]; b) randomized control trial, versus control group)?
A: Its ischemic lesions is “resolution”.

Q: What about the blood flow (TAO [3]; b) randomized control trial, with standard of care versus standard of care) of the same compound?
A: Its blood flow is “improvement”.

Q: What about the “dye nephrotoxicity and acute kidney injury” value [4] of the same compound?
A: The value was “significantly less”.

Q: What about the lung compliance (acute viral pneumonia; long term follow up) of the same compound?
A: The lung compliance was “higher”.

Q: And the lung fibrosis (acute viral pneumonia; long term follow up)?
A: The lung fibrosis was “significantly reduced”.

Q: And the “resolution of pneumonia during the hospitalization” value (acute viral pneumonia; versus placebo, with conventional therapy)?
A: Its value is “significantly more rapid”.

Q: What about the cognition and memory (Alzheimer's disease [1]) of the same compound?
A: The cognition and memory was “improvement”.

Q: What about the “antibody response to vaccine” value (sickle cell disease; AstraZeneca vaccine, ramatroban 75 mg twice a day orally for one month) of the same compound?
A: The value was “robust”.

Q: What about the “VOC, ACS, myocardial infarction or stroke” value (sickle cell disease; after vaccine, ramatroban 75 mg twice a day orally) of the same compound?
A: Its value is “no recrudescence or recurrence”.

Q: And the “active vascular lesions and pain symptoms” value (TAO [5])?
A: The value was “Improvement”.

Q: What about the “blood flow in the dorsalis pedis and posterior tibial arteries by doppler” value (TAO [5]) of the same compound?
A: The value was “increase”.

Q: And the “development of ulcers in the fingertips and toes, acrocyanosis, necrosis and loss of substance” value (TAO [5])?
A: The value was “significantly less”.

Q: And the “need for surgical procedures and amputations” value (TAO [5])?
A: The value was “decrease”.

Q: What about the “pulmonary function tests and DLCO” value (COVID-19; after 2 months) of the same compound?
A: Its value is “normal”.

Q: And the “chest X-ray” value (COVID-19; after 2 months, ramatroban continued as outpatient)?
A: The value was “complete resolution of the infiltrates with no evidence of any pulmonary fibrosis or scarring”.

Q: And the “time to discharge home” value (COVID-19; person, 75 mg twice a day)?
A: The value was 5 days.

Q: What about the lymphocyte counts (COVID-19; [9]) of the same compound?
A: The lymphocyte counts was “rapid improvement”.

Q: What about the “need for mechanical ventilation” value (COVID-19; [9]) of the same compound?
A: The value was “less”.

Q: And the recovery time (COVID-19; [9])?
A: Its recovery time is “shorter”.

Q: What about the thrombocytopenia (COVID-19; [9]) of the same compound?
A: The thrombocytopenia was “rapid recovery”.

Q: What about the “fibrosis and scarring in the lungs” value (COVID-19; [10]) of the same compound?
A: The value was “reduced”.

Q: And the lung function (COVID-19; [10])?
A: Its lung function is “better”.

Q: And the laboratory parameters (Kawasaki like disease)?
A: The laboratory parameters was “marked improved”.

Q: What about the “prophylaxis against Kawasaki like disease” value (Kawasaki like disease) of the same compound?
A: Its value is “remains healthy”.

Q: And the improvement in symptoms [6]?
A: Its improvement in symptoms is 25%.

Q: What about the “NLRP3 inflammasome, IL-1beta and caspase-1” value (silicosis mice) of the same compound?
A: Its value is “inhibiting”.

Q: And the “fibrosis and resulting cardiopulmonary dysfunction” value (silicosis mice)?
A: Its value is “inhibiting; also recorded: significantly reducing”.

Q: What about the “infiltration with macrophages, lymphocytes and neutrophils” value (silicosis mice) of the same compound?
A: Its value is “reducing; also recorded: markedly inhibited”.

Q: And the lung compliance (silicosis mice)?
A: The lung compliance was “restoring”.

Q: And the silica-induced pulmonary inflammation (silicosis mice)?
A: The silica-induced pulmonary inflammation was “alleviated”.

Q: And the lung compliance (pneumoconiosis)?
A: The lung compliance was “higher”.

Q: And the lung fibrosis (pneumoconiosis)?
A: Its lung fibrosis is “significantly reduced”.

Q: For COc1ccccc1Oc1c(NS(=O)(=O)c2ccc(C(C)(C)C)cc2)nc(-c2ncccn2)nc1OCCO [bosentan], which clinical response [7] is on record?
A: Its clinical response is “no response”.

Q: Which clinical response [7] does the source give for CCCc1nn(C)c2c(=O)[nH]c(-c3cc(S(=O)(=O)N4CCN(C)CC4)ccc3OCC)nc12 [sildenafil] here?
A: Its clinical response is “no response”.
